Measured values: patent US20080194567A1, “Combination Treatment for Enhancing Diuresis” (priority 2005, published 2008)

Experiments:
Type in all cases: in vivo, human
[1] = Experiment 2: case report, levosimendan infusion added to vasodilators and diuretics in a person with dyspnea and lung oedema
Procedure: Person was admitted to hospital due to severely worsened dyspnea. They suffered from coronary artery disease with no possibilities for re-vascularisation. They had ejection fraction below 35%, markedly elevated end-diastolic pressure and moderate mitral regurgitation. […] They were treated with positive pressure ventilation, vasodilators and diuretics for three days without positive response. Levosimendan fusion with a bolus and continuous infusion rate up to 0.2 microg/kg/min was added. The infusion lasted 24 hours. Before the infusion their daily urinary volumes varied between 2150 and 2730 ml. On the day levosimendan was started their urinary volume was 2650 and increased to 3855, 2890 and 2790 ml during the next consecutive days, and their fluid balance was 8500 ml negative during the four next days after the infusion of levosimendan.

[2] = Experiment 3: case report, levosimendan infusion added to diuretics in a person with dilating cardiomyopathy
Procedure: Person was admitted to hospital due to worsened dyspnea. They suffered from idiopathic dilating cardiomyopathy and their left ventricular ejection fraction was 26%. They were treated with diuretics (furosemide and spironolactone) as well as perindopril, bisoprolol and digitalis without positive response for one week. Levosimendan infusion of 0.05 microg/kg/min was added. During the next 24 hours they urinated 3500 ml and during the next five days their weight decreased from 66.5 kg to 62.5 kg, although it had not changed at all before the infusion of levosimendan.

[3] = Experiment 1: case report, levosimendan infusion added to diuretics in a person with congestive heart failure; conditions: for daily urine volume: 850-1850 ml before start
Description: Person was admitted to hospital due to congestive heart failure. In cardiac echocardiography they had ejection fraction below 30%, moderate regurgitation of mitral valve and dilative cardiomyopathy. According to coronary angiography invasive procedures such as angioplasty or coronary by-pass surgery were not possible. During the first four days at hospital they received diuretics (furosemide and spironolactone) as well as lisinopril, bisoprolol, antibiotics and allopurinol without any positive response. Their dyspnea worsened and peripheral oedema increased. Levosimendan infusion was added with the dose of 0.05 microg/kg/min and was increased to 0.1 microg/kg/min after two hours, the infusion lasted 24 hours, no bolus infusion was used due to low blood pressure. During the next day patient told that they felt better and dyspnea and periphera oedema decreased. […] The daily urine volumes varied between 850 and 1850 ml before the start of levosimendan, and increased up to 6350 ml on the day they received levosimendan, and were 3800 ml on the day after levosimendan infusion, after that they went down to normal.

C[C@@H]1CC(=O)NN=C1c1ccc(NN=C(C#N)C#N)cc1 [levosimendan, (−)-enantiomer of [[4-(1,4,5,6-tetrahydro-4-methyl-6-oxo-3-pyridazinyl)phenyl]hydrazono]propanedinitrile]
fluid balance (negative) ([1]; during the four next days after the infusion of levosimendan): 8500 mL
daily urinary volume ([1]; first consecutive day after levosimendan start, 2150-2730 ml before infusion): 3855 mL
daily urinary volume ([1]; on the day levosimendan was started (bolus plus infusion up to 0.2 microg/kg/min, 24 h) on top of diuretics, 2150-2730 ml before infusion): 2650 mL
daily urinary volume ([1]; second consecutive day after levosimendan start): 2890 mL
daily urinary volume ([1]; third consecutive day after levosimendan start): 2790 mL
body weight ([2]; after the next five days, decreased from 66.5 kg, no change before the infusion): 62.5 kg
urine volume ([2]; during the next 24 hours after levosimendan 0.05 microg/kg/min was added to furosemide and spironolactone): 3500 mL
urinary volumes (in words) ([3]; after the levosimendan infusion was added to diuretics): increased markedly
dyspnea and peripheral oedema ([3]; during the next day after the levosimendan infusion was added): decreased
daily urine volume ([3]; on the day after levosimendan infusion): 3800 mL
daily urine volume ([3]; on the day they received levosimendan (0.05 then 0.1 microg/kg/min, 24 h infusion) on top of furosemide and spironolactone): 6350 mL
